How the values were obtained:
[1] = clinical studies; less frequent than with marketed NNRTIs; cited from earlier work
[2] = Effect of gamma irradiation process parameters on recovery of TMC278 from polymer specimens; format: physicochemical
Protocol: For those samples that were irradiated under a nitrogen atmosphere, the following procedure was followed. Polymer implants were prepared containing 60% TMC278 and 40% PLGA 50/50 as described above. Samples were placed in Nalgene™ cuvettes inside the antechamber of a nitrogen glovebox. An automatic vacuum cycle was executed consisting of three 8 minute vacuum purges each followed by nitrogen refilling. The samples were transferred to the main chamber and allowed to equilibrate overnight. The cuvettes were placed in foil pouches and the pouches were sealed before removal from the nitrogen glovebox. Samples were removed from glovebox and irradiated as directed.
Those samples that were irradiated under ambient conditions were placed in vials and aluminum pouches, which were heat sealed under ambient conditions and were stored at 0° C. until they reached that temperature. The samples that were processed at 0° C. were stored at 0° C. Subsequently, the samples were removed from freezer environment and immediately placed in the irradiator. […]
From the data it can be seen that exposure level of irradiation is the most significant factor in achieving complete recovery of TMC278 from irradiated samples. […] In addition, the samples that were exposed to 15 kgy irradiation under nitrogen environment were analyzed for impurities stemming from TMC278 degradation.

[3] = Solubility of TMC278 and of TMC278 recrystallized from DMSO; format: physicochemical
Protocol: In addition to increasing the water uptake into the bulk of the polymer, excipients can be used to decrease the crystallinity of the TMC278 and thereby lower the energy necessary to solubilize the drug. […] The recrystallized TMC278 was prepared by dissolving 10 grams of TMC278 in 800 ml of DMSO under gentle stirring for 2 hours. One hundred milliliters of the solution was subsequently poured into a flat bottomed aluminum mold. Solution was lyophilized using a Dora-Stop MTS system. Lyophilized TMC278 was collected. Two grams of PLGA 50/50 were fed into DACA compounder that was pre-set to 120° C. with screws rotating at 100 rpm. After the polymer was fed into the DACA and melted, two grams of lyophilized TMC278 were fed into the compounder and mixed at the set conditions for an additional 5 minutes. The extruded strands were collected, cooled in ambient conditions and placed in plastic bags and stored in a nitrogen box for analysis.
The lowered crystallinity of the TMC278 when re-crystallized from DMSO is also reflected in the change of the appearance of the TMC278 crystals following the recrystallization procedure. The morphology of the TMC278 particles in the drug powder appear compact and needle-shaped, but after the recrystallization process the particles are highly porous (FIG. 3). […]

SMILES | Side effects [1] | Impurities stemming from TMC278 degradation (mass spectrometry) ([2]; 15 kgy irradiation under nitrogen environment) | TMC278 recovered (average) ([2]; irradiated at 25 kgy (under nitrogen)) [%] | Solubility in DMSO ([3]; DMSO) | Solubility relative to unrecrystallized TMC278 ([3]; recrystallized (lyophilized from DMSO) versus unrecrystallized TMC278)
Cc1cc(C=CC#N)cc(C)c1Nc1ccnc(Nc2ccc(C#N)cc2)n1 [TMC278, 4-[[4-[[4-(2-cyanoethenyl)-2,6-dimethylphenyl}-amino]-2-pyrimidinyl]-amino]-benzonitrile] | nausea, dizziness, abnormal dreams, dyspepsia, asthenia, skin rashes, somnolence and vertigo | no new impurities formed by the irradiation | 81 | highly soluble | –
Cc1cc(/C=C/C#N)cc(C)c1Nc1ccnc(Nc2ccc(C#N)cc2)n1 [recrystallized TMC278] | – | – | – | – | more than 250 ×
